ChEMBL document CHEMBL3045199, “Synthesis of some (E)-6-[2-(furan-2-yl)ethenyl]-1,2,4-triazin-5-ones and their biological evaluation as antitumor agents” (2013)

How the values were obtained:
Type in all cases: functional
[1] = Cytotoxicity against Homo sapiens (human) melanoma cells after 48 hr by SRB assay; conditions: Melanoma cell
MDA-MB-435 = experiment: Cytotoxicity against Homo sapiens (human) MDA-MB-435 cells assessed as growth inhibition at 10 uM after 24 hr; conditions: MDA-MB-435, 24 h, read-out: GI
SF-295 = experiment: Cytotoxicity against Homo sapiens (human) SF295 cells assessed as growth inhibition at 10 uM after 24 hr; conditions: SF-295, 24 h, read-out: GI
NCI-H226 = experiment: Cytotoxicity against Homo sapiens (human) NCI-H226 cells assessed as growth inhibition at 10 uM after 24 hr; conditions: NCI-H226, 24 h, read-out: GI
NCI-H460 = experiment: Cytotoxicity against Homo sapiens (human) NCI-H460 cells assessed as growth inhibition at 10 uM after 24 hr; conditions: NCI-H460, 24 h, read-out: GI
NCI-H322M = experiment: Cytotoxicity against Homo sapiens (human) NCI-H322M cells assessed as growth inhibition at 10 uM after 24 hr; conditions: read-out: GI
HCT-116 = experiment: Cytotoxicity against Homo sapiens (human) HCT116 cells assessed as growth inhibition at 10 uM after 24 hr; conditions: HCT-116, 24 h, read-out: GI
MDA-MB-468 = experiment: Cytotoxicity against Homo sapiens (human) MDA-MB-468 cells after 48 hr by SRB assay; conditions: MDA-MB-468, 48 h
786-0 = experiment: Cytotoxicity against Homo sapiens (human) 786-0 cells assessed as growth inhibition at 10 uM after 24 hr; conditions: 786-0, 24 h, read-out: GI
[2] = Cytotoxicity against Homo sapiens (human) prostate cancer cells after 48 hr by SRB assay; conditions: Cancer cell lines
K562 = experiment: Cytotoxicity against Homo sapiens (human) K562 cells assessed as growth inhibition at 10 uM after 24 hr; conditions: K562, 24 h, read-out: GI
OVCAR-3 = experiment: Cytotoxicity against Homo sapiens (human) OVCAR3 cells assessed as growth inhibition at 10 uM after 24 hr; conditions: OVCAR-3, 24 h, read-out: GI
UO-31 = experiment: Cytotoxicity against Homo sapiens (human) UO31 cells assessed as growth inhibition at 10 uM after 24 hr; conditions: UO-31, 24 h, read-out: GI
RXF 393 = experiment: Cytotoxicity against Homo sapiens (human) RXF393 cells assessed as growth inhibition at 10 uM after 24 hr; conditions: RXF 393, 24 h, read-out: GI
[3] = Cytotoxicity against Homo sapiens (human) colon cancer cells after 48 hr by SRB assay; conditions: Cancer cell lines
CAKI-1 = experiment: Cytotoxicity against Homo sapiens (human) Caki1 cells assessed as growth inhibition at 10 uM after 24 hr; conditions: CAKI-1, 24 h, read-out: GI
[4] = Cytotoxicity against Homo sapiens (human) ovarian cancer cells after 48 hr by SRB assay; conditions: Cancer cell lines
SF-539 = experiment: Cytotoxicity against Homo sapiens (human) SF539 cells assessed as growth inhibition at 10 uM after 24 hr; conditions: SF-539, 24 h, read-out: GI
SK-MEL-5 = experiment: Cytotoxicity against Homo sapiens (human) SK-MEL-5 cells assessed as growth inhibition at 10 uM after 24 hr; conditions: SK-MEL-5, 24 h, read-out: GI
LOX IMVI = experiment: Cytotoxicity against Homo sapiens (human) LOXIMVI cells assessed as growth inhibition at 10 uM after 24 hr; conditions: read-out: GI
TK-10 = experiment: Cytotoxicity against Homo sapiens (human) TK10 cells assessed as growth inhibition at 10 uM after 24 hr; conditions: TK-10, 24 h, read-out: GI
HT-29 = experiment: Cytotoxicity against Homo sapiens (human) HT-29 cells assessed as growth inhibition at 10 uM after 24 hr; conditions: HT-29, 24 h, read-out: GI
SF-268 = experiment: Cytotoxicity against Homo sapiens (human) SF268 cells assessed as growth inhibition at 10 uM after 24 hr; conditions: SF-268, 24 h, read-out: GI
[5] = Cytotoxicity against Homo sapiens (human) non-small cell lung cancer cells after 48 hr by SRB assay; conditions: Cancer cell lines
HL-60(TB) = experiment: Cytotoxicity against Homo sapiens (human) HL-60(TB) cells assessed as growth inhibition at 10 uM after 24 hr; conditions: HL-60, 24 h, read-out: GI
IGROV-1 = experiment: Cytotoxicity against Homo sapiens (human) IGROV1 cells assessed as growth inhibition at 10 uM after 24 hr; conditions: IGROV-1, 24 h, read-out: GI
OVCAR-5 = experiment: Cytotoxicity against Homo sapiens (human) OVCAR5 cells assessed as growth inhibition at 10 uM after 24 hr; conditions: OVCAR-5, 24 h, read-out: GI
EKVX = experiment: Cytotoxicity against Homo sapiens (human) EKVX cells assessed as growth inhibition at 10 uM after 24 hr; conditions: read-out: GI
OVCAR-4 = experiment: Cytotoxicity against Homo sapiens (human) OVCAR4 cells assessed as growth inhibition at 10 uM after 24 hr; conditions: OVCAR-4, 24 h, read-out: GI
[6] = Cytotoxicity against Homo sapiens (human) CNS cancer cells after 48 hr by SRB assay; conditions: Cancer cell lines
SK-MEL-28 = experiment: Cytotoxicity against Homo sapiens (human) SK-MEL-28 cells assessed as growth inhibition at 10 uM after 24 hr; conditions: SK-MEL-28, 24 h, read-out: GI
U-251 = experiment: Cytotoxicity against Homo sapiens (human) U251 cells assessed as growth inhibition at 10 uM after 24 hr; conditions: U-251, 24 h, read-out: GI
A549 = experiment: Cytotoxicity against Homo sapiens (human) A549/ATCC cells assessed as growth inhibition at 10 uM after 24 hr; conditions: A549, 24 h, read-out: GI
UACC-257 = experiment: Cytotoxicity against Homo sapiens (human) UACC257 cells assessed as growth inhibition at 10 uM after 24 hr; conditions: UACC-257, 24 h, read-out: GI
MCF7 = experiment: Cytotoxicity against Homo sapiens (human) MCF7 cells assessed as growth inhibition at 10 uM after 24 hr; conditions: MCF7, 24 h, read-out: GI
SN12C = experiment: Cytotoxicity against Homo sapiens (human) SN12C cells assessed as growth inhibition at 10 uM after 24 hr; conditions: read-out: GI
KM12 = experiment: Cytotoxicity against Homo sapiens (human) KM12 cells assessed as growth inhibition at 10 uM after 24 hr; conditions: KM12, 24 h, read-out: GI
[7] = read-out: LC50 (the source's name)

Nc1cc(-c2ccc(Cl)cc2)nn1-c1nc(=O)c(/C=C/c2ccco2)n[nH]1
GI50 [1]: 6.7 µM
TGI [1]: 59.3 µM
CC50 [1, 7]: > 100 µM
inhibition of growth at 10 µM (MDA-MB-435): 37.2%
inhibition of growth at 10 µM (SF-295): 90.1%
inhibition of growth at 10 µM (NCI-H226): 52.6%
inhibition of growth at 10 µM (NCI-H460): 79.6%
inhibition of growth at 10 µM (NCI-H322M): 75.6%
inhibition of growth at 10 µM (HCT-116): 59%
GI50 (MDA-MB-468): 3.08 µM
TGI (MDA-MB-468): 22.2 µM
CC50 (MDA-MB-468; [7]): > 100 µM
inhibition of growth at 10 µM (786-0): 53.1%
GI50 [2]: 4.3 µM
TGI [2]: 40.1 µM
CC50 [2, 7]: 50 µM
inhibition of growth at 10 µM (K562): 58.3%
inhibition of growth at 10 µM (OVCAR-3): 62.1%
inhibition of growth at 10 µM (UO-31): 96.1%
inhibition of growth at 10 µM (RXF 393): 32.2%
GI50 [3]: 4.27 µM
TGI [3]: 22 µM
CC50 [3, 7]: > 100 µM
inhibition of growth at 10 µM (CAKI-1): 99%
GI50 [4]: 3.8 µM
TGI [4]: 43.1 µM
CC50 [4, 7]: 89.7 µM
inhibition of growth at 10 µM (SF-539): 44.6%
inhibition of growth at 10 µM (SK-MEL-5): 54%
inhibition of growth at 10 µM (LOX IMVI): 50.1%
inhibition of growth at 10 µM (TK-10): 48.8%
inhibition of growth at 10 µM (HT-29): 55.8%
inhibition of growth at 10 µM (SF-268): 47.5%
GI50 [5]: 4.47 µM
TGI [5]: 41.1 µM
CC50 [5, 7]: > 100 µM
inhibition of growth at 10 µM (HL-60(TB)): 4.83%
inhibition of growth at 10 µM (IGROV-1): 65%
inhibition of growth at 10 µM (OVCAR-5): 39.1%
inhibition of growth at 10 µM (EKVX): 58.3%
inhibition of growth at 10 µM (OVCAR-4): 70.9%
GI50 [6]: 4.99 µM
TGI [6]: 44.5 µM
CC50 [6, 7]: > 100 µM
inhibition of growth at 10 µM (SK-MEL-28): 33.6%
inhibition of growth at 10 µM (U-251): 49.4%
inhibition of growth at 10 µM (A549): 62.7%
inhibition of growth at 10 µM (UACC-257): 30.4%
inhibition of growth at 10 µM (MCF7): 54.1%
inhibition of growth at 10 µM (SN12C): 31.8%
inhibition of growth at 10 µM (KM12): 44%
